Legend:
Format in all cases: in vivo, C57BL/6J mouse
[1] = test system: Akkermansia; experiment: Metagenome analysis of feces in high-fat diet induced obesity model: proportion of Akkermansia; details: for Akkermansia Average (%): feces after 8 weeks
Description: (§1) A 5-week-old male C57BL/6J mouse prepared in Example 1.2 were used after a 2-week acclimatization process, and then adjustment of body weight for each group. From the time the mouse reached 7 weeks of age, obesity was induced with a high fat diet (HFD). The mice were fed ad libitum with a general feed or a high-fat diet feed for 16 weeks, and PBS and galactose were orally administered daily to each group. The input amount and the remaining amount of the feed were measured twice a week to calculate daily caloric intake, and the body weight was measured once a week at a designated time. For microbiome analysis, feces were collected as shown in FIG. 1 and analysis was requested to Macrogen Inc. Feces were collected after selecting five mice whose body weight was closest to the average. The number of animals in each group was set to 8. After 8 weeks of the experiment, metagenome analysis was performed by collecting feces from the 3rd group (HFD-PBS), the 5th group (HFD-Gal 100 mg/kg), and the 6th group (HFD-Gal 50 mg/kg). The results of the metagenomic analysis were obtained by requesting metagenome sequencing to Macrogen Co., Ltd. For the experimental results, significance was tested using the TTEST method, and when the P value was less than 0.05, that value was determined to be significant ((*)<0.05, (**)<0.01, (***)<0.001).

[2] = test system: Lactobacillus; experiment: Metagenome analysis of feces in high-fat diet induced obesity model: proportion of Lactobacillus; details: for Lactobacillus Average (%): feces after 8 weeks
Description: as §1

[3] = test system: Alistipes; experiment: Metagenome analysis of feces in high-fat diet induced obesity model: proportion of Alistipes; details: for Alistipes Average (%): feces after 8 weeks
Description: as §1

[4] = Measurement of body weight (weight gain) in mice on normal or high-fat diet; details: 16 weeks, oral daily, n=8
Description: A 5-week-old male C57BL/6J mouse prepared in Example 1.2 were used after a 2-week acclimatization process, and then adjustment of body weight for each group. From the time the mouse reached 7 weeks of age, obesity was induced with a high fat diet (HFD). The mice were fed ad libitum with a general feed or a high-fat diet feed for 16 weeks, and PBS and galactose were orally administered daily to each group. The input amount and the remaining amount of the feed were measured twice a week to calculate daily caloric intake, and the body weight was measured once a week at a designated time. During the experimental period (16 weeks) designed in Example 1.3, the body weight of the experimental animals were measured at a predetermined time every week before administration of galactose or PBS, and body weight change (weight gain) and survival rate were measured (allowed to euthanize if the body weight decreases to less than 20% of the initial body weight). The weight gain was calculated by setting the body weight (initial body weight) of the experimental animal at 7 weeks of age as 100% and then calculating the body weight measured at each time point as a relative value to the initial body weight.

[5] = Intraperitoneal glucose tolerance test
Description: The experimental animals were kept hungry (12-hour fasting) from 9:00 p.m. the day before the test to 9:00 a.m. the day of the test, and then a blood glucose test was performed. To keep a hungry condition, feed and straw litter were removed to induce fasting. A 10% (w/v) glucose (in PBS) solution sterilized by 0.2 μm filtration was prepared. After intraperitoneally administering 2 mg glucose/g, volume=body weight*20 (μl) for each individual, the mice were again put in the cage, and blood glucose levels were measured every 0, 30, 60, 90, and 120 minutes. The blood glucose tests were performed by collecting blood from the caudal vein. The intraperitoneal glucose tolerance test was performed 13 weeks after inducing obesity with a high-fat diet.

[6] = group 5: high fat diet, galactose 100 mg/kg oral daily
[7] = group 6: high fat diet, galactose 50 mg/kg oral daily
[8] = high fat diet, galactose-administered group vs PBS control

**Q.** Which results are given for O=C[C@H](O)[C@@H](O)[C@@H](O)[C@H](O)CO [Galactose, galactose]?
**A.** Akkermansia Average (%) [1, 6]: 1.365%; Akkermansia Average (%) [1, 7]: 0.135%; proportion of Akkermansia as compared with a control group [1, 8]: increased; Lactobacillus Average (%) [2, 6]: 3.8375%; Lactobacillus Average (%) [2, 7]: 2.17%; proportion of Lactobacillus as compared with a control group [2, 8]: increased; Alistipes Average (%) [3, 6]: 1.0275%; Alistipes Average (%) [3, 7]: 1.9675%; proportion of Alistipes as compared with a control group [3, 8]: increased; weight gain vs PBS-administered group ([4]; general diet group): no significant difference; weight gain vs PBS-administered group ([4]; high-fat diet feed group): significantly reduced; blood sugar levels at 120 minutes ([5]; high-fat diet group, measured at 120 minutes after i.p. glucose): comparable to those in the normal diet group; blood glucose level vs control group (PBS-administered) ([5]; high-fat diet intake group (HD), 13 weeks after inducing obesity, 2 mg glucose/g i.p.): significantly decreased; blood glucose by galactose administration ([5]; normal diet intake group (ND), 2 mg glucose/g i.p., 12-hour fasting): decreased
